Source: the NIST ThermoML archive (doi:10.1016/j.jct.2013.04.021)

Assay: xn = mol fraction of the nth substance listed
Conditions: 101 kPa, Liquid; for mass density: Vibrating tube method; for speed of sound: fixed-path interferometer; for viscosity: Capillary tube (Ostwald / Ubbelohde) method

CCCCOCCO [2-butoxyethan-1-ol] + CCCCCCCCO
Conditions | mass density [kg/m3] | speed of sound [m/s] | viscosity [mPa·s]
293.15 K, x1 = 0.053 | 828.488 | 1361.8 | –
293.15 K, x1 = 0.105 | 831.623 | 1359 | –
293.15 K, x1 = 0.167 | 835.443 | 1355.4 | –
293.15 K, x1 = 0.2004 | 837.529 | 1353.2 | –
293.15 K, x1 = 0.2561 | 841.092 | 1350.3 | –
293.15 K, x1 = 0.3039 | 844.242 | 1347.8 | –
293.15 K, x1 = 0.4046 | 851.133 | 1342.7 | –
293.15 K, x1 = 0.5013 | 858.109 | 1338.2 | –
293.15 K, x1 = 0.6004 | 865.629 | 1334 | –
293.15 K, x1 = 0.7009 | 873.666 | 1330.3 | –
293.15 K, x1 = 0.8027 | 882.262 | 1327 | –
293.15 K, x1 = 0.852 | 886.596 | 1325.6 | –
293.15 K, x1 = 0.9007 | 891.001 | 1324.4 | –
293.15 K, x1 = 0.9512 | 895.736 | 1323.4 | –
298.15 K, x1 = 0.053 | 825.018 | 1344.8 | 6.97
298.15 K, x1 = 0.1049 | – | – | 6.636
298.15 K, x1 = 0.105 | 828.108 | 1342.1 | –
298.15 K, x1 = 0.167 | 831.899 | 1338.4 | 6.076
298.15 K, x1 = 0.2004 | 833.978 | 1336.4 | 5.882
298.15 K, x1 = 0.2561 | 837.535 | 1333.4 | 5.471
298.15 K, x1 = 0.3039 | 840.656 | 1330.9 | 5.254
298.15 K, x1 = 0.4046 | 847.482 | 1325.9 | 4.678
298.15 K, x1 = 0.5013 | 854.363 | 1321.3 | 4.286
298.15 K, x1 = 0.6004 | 861.773 | 1316.9 | 3.885
298.15 K, x1 = 0.7009 | 869.705 | 1313.2 | 3.588
298.15 K, x1 = 0.8027 | 878.21 | 1310 | 3.287
298.15 K, x1 = 0.852 | 882.514 | 1308.5 | 3.165
298.15 K, x1 = 0.9007 | 886.89 | 1307.5 | 3.04
298.15 K, x1 = 0.9512 | 891.594 | 1306.5 | 2.901
303.15 K, x1 = 0.053 | 821.521 | 1328.1 | 5.789
303.15 K, x1 = 0.1049 | – | – | 5.499
303.15 K, x1 = 0.105 | 824.6 | 1325.4 | –
303.15 K, x1 = 0.167 | 828.337 | 1321.7 | 5.128
303.15 K, x1 = 0.2004 | 830.387 | 1319.7 | 4.946
303.15 K, x1 = 0.2561 | 833.89 | 1316.7 | 4.656
303.15 K, x1 = 0.3039 | 836.962 | 1314.2 | 4.44
303.15 K, x1 = 0.4046 | 843.721 | 1309.1 | 4.001
303.15 K, x1 = 0.5013 | 850.582 | 1304.5 | 3.647
303.15 K, x1 = 0.6004 | 857.95 | 1300.3 | 3.31
303.15 K, x1 = 0.7009 | 865.804 | 1296.5 | 3.045
303.15 K, x1 = 0.8027 | 874.181 | 1293.3 | 2.825
303.15 K, x1 = 0.852 | 878.409 | 1292 | 2.734
303.15 K, x1 = 0.9007 | 882.718 | 1290.8 | 2.661
303.15 K, x1 = 0.9512 | 887.379 | 1289.8 | 2.636
308.15 K, x1 = 0.053 | 818.004 | 1311.3 | 5.048
308.15 K, x1 = 0.1049 | – | – | 4.78
308.15 K, x1 = 0.105 | 821.021 | 1308.8 | –
308.15 K, x1 = 0.167 | 824.71 | 1305.5 | 4.442
308.15 K, x1 = 0.2004 | 826.746 | 1303.3 | 4.298
308.15 K, x1 = 0.2561 | 830.229 | 1300.5 | 4.049
308.15 K, x1 = 0.3039 | 833.292 | 1298.2 | 3.878
308.15 K, x1 = 0.4046 | 839.998 | 1293.1 | 3.519
308.15 K, x1 = 0.5013 | 846.771 | 1288.7 | 3.229
308.15 K, x1 = 0.6004 | 854.07 | 1284.5 | 2.965
308.15 K, x1 = 0.7009 | 861.87 | 1280.5 | 2.753
308.15 K, x1 = 0.8027 | 870.213 | 1277 | 2.545
308.15 K, x1 = 0.852 | 874.403 | 1275.4 | 2.457
308.15 K, x1 = 0.9007 | 878.687 | 1274.1 | 2.369
308.15 K, x1 = 0.9512 | 883.226 | 1273 | 2.281
313.15 K, x1 = 0.053 | 814.437 | 1294.9 | –
313.15 K, x1 = 0.105 | 817.45 | 1292.3 | –
313.15 K, x1 = 0.167 | 821.134 | 1289.2 | –
313.15 K, x1 = 0.2004 | 823.153 | 1287.3 | –
313.15 K, x1 = 0.2561 | 826.589 | 1284.5 | –
313.15 K, x1 = 0.3039 | 829.618 | 1282.2 | –
313.15 K, x1 = 0.4046 | 836.231 | 1277.4 | –
313.15 K, x1 = 0.5013 | 842.934 | 1273 | –
313.15 K, x1 = 0.6004 | 850.161 | 1268.8 | –
313.15 K, x1 = 0.7009 | 857.881 | 1264.7 | –
313.15 K, x1 = 0.8027 | 866.131 | 1261.1 | –
313.15 K, x1 = 0.852 | 870.301 | 1259.5 | –
313.15 K, x1 = 0.9007 | 874.538 | 1258 | –
313.15 K, x1 = 0.9512 | 879.067 | 1256.6 | –

CCCCOCCO [2-butoxyethan-1-ol] + CCCCCCCCCCO
Conditions | mass density [kg/m3] | speed of sound [m/s] | viscosity [mPa·s]
293.15 K, x1 = 0.0563 | 832.457 | 1392 | –
293.15 K, x1 = 0.1024 | 834.521 | 1388.2 | –
293.15 K, x1 = 0.1544 | 836.95 | 1383.8 | –
293.15 K, x1 = 0.2049 | 839.424 | 1379.5 | –
293.15 K, x1 = 0.2531 | 841.903 | 1374.8 | –
293.15 K, x1 = 0.3066 | 844.775 | 1369.9 | –
293.15 K, x1 = 0.4028 | 850.363 | 1360.7 | –
293.15 K, x1 = 0.5033 | 856.773 | 1351.5 | –
293.15 K, x1 = 0.6031 | 863.803 | 1343.5 | –
293.15 K, x1 = 0.7009 | 871.448 | 1337.1 | –
293.15 K, x1 = 0.8043 | 880.396 | 1331.2 | –
293.15 K, x1 = 0.8532 | 884.962 | 1328.7 | –
293.15 K, x1 = 0.8996 | 889.528 | 1326.3 | –
293.15 K, x1 = 0.9447 | 894.239 | 1324.5 | –
298.15 K, x1 = 0.0563 | 829 | 1374.9 | 10.7
298.15 K, x1 = 0.1024 | 831.148 | 1371.1 | 9.884
298.15 K, x1 = 0.1544 | 833.643 | 1366.8 | 9.125
298.15 K, x1 = 0.2049 | 836.177 | 1362.6 | 8.425
298.15 K, x1 = 0.2531 | 838.694 | 1358.3 | 7.84
298.15 K, x1 = 0.3066 | 841.628 | 1353.7 | 7.29
298.15 K, x1 = 0.4028 | 847.26 | 1344.9 | 6.351
298.15 K, x1 = 0.5033 | 853.675 | 1336.1 | 5.491
298.15 K, x1 = 0.6031 | 860.637 | 1328.2 | 4.852
298.15 K, x1 = 0.7009 | 868.128 | 1321.1 | 4.26
298.15 K, x1 = 0.8043 | 876.828 | 1314.9 | 3.68
298.15 K, x1 = 0.8532 | 881.288 | 1312.6 | 3.446
298.15 K, x1 = 0.8996 | 885.737 | 1310.2 | 3.261
298.15 K, x1 = 0.9447 | 890.317 | 1308.3 | 3.107
303.15 K, x1 = 0.0563 | 825.535 | 1358.1 | 8.765
303.15 K, x1 = 0.1024 | 827.625 | 1354.4 | 8.155
303.15 K, x1 = 0.1544 | 830.09 | 1350.1 | 7.554
303.15 K, x1 = 0.2049 | 832.6 | 1345.9 | 7.026
303.15 K, x1 = 0.2531 | 835.09 | 1341.7 | 6.577
303.15 K, x1 = 0.3066 | 837.986 | 1337.1 | 6.114
303.15 K, x1 = 0.4028 | 843.566 | 1328.9 | 5.33
303.15 K, x1 = 0.5033 | 849.927 | 1320.8 | 4.683
303.15 K, x1 = 0.6031 | 856.84 | 1313.2 | 4.089
303.15 K, x1 = 0.7009 | 864.279 | 1306.3 | 3.638
303.15 K, x1 = 0.8043 | 872.98 | 1299.7 | 3.162
303.15 K, x1 = 0.8532 | 877.42 | 1296.7 | 2.979
303.15 K, x1 = 0.8996 | 881.86 | 1294.2 | 2.814
303.15 K, x1 = 0.9447 | 886.371 | 1291.7 | 2.671
308.15 K, x1 = 0.0563 | 822.068 | 1341.5 | 7.476
308.15 K, x1 = 0.1024 | 824.141 | 1337.8 | 6.95
308.15 K, x1 = 0.1544 | 826.569 | 1333.9 | 6.449
308.15 K, x1 = 0.2049 | 829.044 | 1330 | 5.981
308.15 K, x1 = 0.2531 | 831.491 | 1326.1 | 5.619
308.15 K, x1 = 0.3066 | 834.361 | 1321.8 | 5.215
308.15 K, x1 = 0.4028 | 839.86 | 1314.1 | 4.618
308.15 K, x1 = 0.5033 | 846.141 | 1306 | 4.088
308.15 K, x1 = 0.6031 | 852.988 | 1298.2 | 3.601
308.15 K, x1 = 0.7009 | 860.384 | 1290.9 | 3.195
308.15 K, x1 = 0.8043 | 869.011 | 1283.7 | 2.808
308.15 K, x1 = 0.8532 | 873.415 | 1280.6 | 2.609
308.15 K, x1 = 0.8996 | 877.785 | 1277.7 | 2.453
308.15 K, x1 = 0.9447 | 882.225 | 1275.3 | 2.295
313.15 K, x1 = 0.0563 | 818.532 | 1324.8 | –
313.15 K, x1 = 0.1024 | 820.551 | 1321.5 | –
313.15 K, x1 = 0.1544 | 822.945 | 1317.8 | –
313.15 K, x1 = 0.2049 | 825.399 | 1314.2 | –
313.15 K, x1 = 0.2531 | 827.825 | 1310.6 | –
313.15 K, x1 = 0.3066 | 830.657 | 1306.6 | –
313.15 K, x1 = 0.4028 | 836.098 | 1299.4 | –
313.15 K, x1 = 0.5033 | 842.307 | 1292 | –
313.15 K, x1 = 0.6031 | 849.078 | 1284.5 | –
313.15 K, x1 = 0.7009 | 856.416 | 1277 | –
313.15 K, x1 = 0.8043 | 864.959 | 1269.4 | –
313.15 K, x1 = 0.8532 | 869.328 | 1266.2 | –
313.15 K, x1 = 0.8996 | 873.661 | 1262.7 | –
313.15 K, x1 = 0.9447 | 878.012 | 1259.7 | –
